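Protocol summary: plate cells (96-well), add compound at 5 concentrations, incubate 48 h, interpolate endpoints linearly. Here, GI50 denotes the concentration required for 50% inhibition of growth. TGI: total growth inhibition.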
Assays:
Experiment in all cases: inhibition of tumour cell growth, NCI panel, 48 h
SW-620 colon = test system: SW-620 colon
SNB-19 CNS = test system: SNB-19 CNS
SK-OV-3 ovarian = test system: SK-OV-3 ovarian
OVCAR-3 ovarian = test system: OVCAR-3 ovarian
UACC-62 melanoma = test system: UACC-62 melanoma
MDA-MB-231 breast = test system: MDA-MB-231 breast
BT-549 breast = test system: BT-549 breast
KM12 colon = test system: KM12 colon
HCT-116 colon = test system: HCT-116 colon
A498 renal = test system: A498 renal
SK-MEL-2 melanoma = test system: SK-MEL-2 melanoma
SR leukemia = test system: SR leukemia
NCI-H460 lung = test system: NCI-H460 lung
SK-MEL-5 melanoma = test system: SK-MEL-5 melanoma
T-47D breast = test system: T-47D breast
HL-60(TB) leukemia = test system: HL-60(TB) leukemia
HOP-92 NSCLC = test system: HOP-92 NSCLC
COLO 205 colon = test system: COLO 205 colon
HS 578T breast = test system: HS 578T breast
786-0 renal = test system: 786-0 renal
SNB-75 CNS = test system: SNB-75 CNS
MALME-3M melanoma = test system: MALME-3M melanoma
NCI-H226 lung = test system: NCI-H226 lung
OVCAR-4 ovarian = test system: OVCAR-4 ovarian
DU-145 prostate = test system: DU-145 prostate
LOX IMVI melanoma = test system: LOX IMVI melanoma
A549 NSCLC = test system: A549 NSCLC
RPMI-8226 leukemia = test system: RPMI-8226 leukemia
RXF 393 renal = test system: RXF 393 renal
HCC-2998 colon = test system: HCC-2998 colon
HCT-15 colon = test system: HCT-15 colon
OVCAR-8 ovarian = test system: OVCAR-8 ovarian
K-562 leukemia = test system: K-562 leukemia
EKVX NSCLC = test system: EKVX NSCLC
CCRF-CEM leukemia = test system: CCRF-CEM leukemia
MCF7 breast = test system: MCF7 breast
CAKI-1 renal = test system: CAKI-1 renal
ACHN renal = test system: ACHN renal
SF-539 CNS = test system: SF-539 CNS
UO-31 renal = test system: UO-31 renal
SN12C renal = test system: SN12C renal
SF-268 CNS = test system: SF-268 CNS
OVCAR-5 ovarian = test system: OVCAR-5 ovarian
HT29 colon = test system: HT29 colon
UACC-257 melanoma = test system: UACC-257 melanoma
PC-3 prostate = test system: PC-3 prostate
TK-10 renal = test system: TK-10 renal
M14 melanoma = test system: M14 melanoma
SF-295 CNS = test system: SF-295 CNS
SK-MEL-28 melanoma = test system: SK-MEL-28 melanoma
NCI/ADR-RES ovarian = test system: NCI/ADR-RES ovarian
NCI-H23 lung = test system: NCI-H23 lung
HOP-62 NSCLC = test system: HOP-62 NSCLC
MDA-MB-435 = test system: MDA-MB-435
U251 CNS = test system: U251 CNS
MOLT-4 leukemia = test system: MOLT-4 leukemia

COc1cc(C=NCC(=O)CSC(c2ccccc2)c2ccccc2)cc(OC)c1OC
GI50 (SW-620 colon): 32.7 µM
TGI (SW-620 colon): > 100 µM
GI50 (SNB-19 CNS): 30 µM
TGI (SNB-19 CNS): > 100 µM
GI50 (SK-OV-3 ovarian): 23.3 µM
TGI (SK-OV-3 ovarian): 76 µM
GI50 (OVCAR-3 ovarian): 13.3 µM
TGI (OVCAR-3 ovarian): > 100 µM
GI50 (UACC-62 melanoma): 19.2 µM
TGI (UACC-62 melanoma): > 100 µM
GI50 (MDA-MB-231 breast): 18.1 µM
TGI (MDA-MB-231 breast): > 100 µM
GI50 (BT-549 breast): 26.5 µM
TGI (BT-549 breast): 93.9 µM
GI50 (KM12 colon): 25.3 µM
TGI (KM12 colon): 82.1 µM
GI50 (HCT-116 colon): 14.1 µM
TGI (HCT-116 colon): > 100 µM
GI50 (A498 renal): 5.98 µM
TGI (A498 renal): 38 µM
GI50 (SK-MEL-2 melanoma): 19.6 µM
TGI (SK-MEL-2 melanoma): 50 µM
GI50 (SR leukemia): 14 µM
TGI (SR leukemia): > 100 µM
GI50 (NCI-H460 lung): 13 µM
TGI (NCI-H460 lung): > 100 µM
GI50 (SK-MEL-5 melanoma): 11.8 µM
TGI (SK-MEL-5 melanoma): 24.4 µM
GI50 (T-47D breast): 4.48 µM
TGI (T-47D breast): 53.7 µM
GI50 (HL-60(TB) leukemia): 8.01 µM
TGI (HL-60(TB) leukemia): 26.8 µM
GI50 (HOP-92 NSCLC): 8.59 µM
TGI (HOP-92 NSCLC): > 100 µM
GI50 (COLO 205 colon): 4.96 µM
TGI (COLO 205 colon): 33 µM
GI50 (HS 578T breast): 19 µM
TGI (HS 578T breast): 59.4 µM
GI50 (786-0 renal): 24.6 µM
TGI (786-0 renal): > 100 µM
GI50 (SNB-75 CNS): 25.5 µM
TGI (SNB-75 CNS): > 100 µM
GI50 (MALME-3M melanoma): 16.8 µM
TGI (MALME-3M melanoma): 61.7 µM
GI50 (NCI-H226 lung): 17.9 µM
TGI (NCI-H226 lung): > 100 µM
GI50 (OVCAR-4 ovarian): 5.18 µM
TGI (OVCAR-4 ovarian): 64.4 µM
GI50 (DU-145 prostate): 40.8 µM
TGI (DU-145 prostate): > 100 µM
GI50 (LOX IMVI melanoma): 23.1 µM
TGI (LOX IMVI melanoma): > 100 µM
GI50 (A549 NSCLC): 7.7 µM
TGI (A549 NSCLC): > 100 µM
GI50 (RPMI-8226 leukemia): 5.18 µM
TGI (RPMI-8226 leukemia): 39.9 µM
GI50 (RXF 393 renal): 23.7 µM
TGI (RXF 393 renal): 96.4 µM
GI50 (HCC-2998 colon): 23 µM
TGI (HCC-2998 colon): 57.3 µM
GI50 (HCT-15 colon): 21.5 µM
TGI (HCT-15 colon): > 100 µM
GI50 (OVCAR-8 ovarian): 19.2 µM
TGI (OVCAR-8 ovarian): > 100 µM
GI50 (K-562 leukemia): 8.63 µM
TGI (K-562 leukemia): 93.7 µM
GI50 (EKVX NSCLC): 27.8 µM
TGI (EKVX NSCLC): > 100 µM
GI50 (CCRF-CEM leukemia): 5.41 µM
TGI (CCRF-CEM leukemia): > 100 µM
GI50 (MCF7 breast): 19.8 µM
TGI (MCF7 breast): > 100 µM
GI50 (CAKI-1 renal): 25.2 µM
TGI (CAKI-1 renal): > 100 µM
GI50 (ACHN renal): 26.4 µM
TGI (ACHN renal): > 100 µM
GI50 (SF-539 CNS): 33.1 µM
TGI (SF-539 CNS): > 100 µM
GI50 (UO-31 renal): 22.6 µM
TGI (UO-31 renal): > 100 µM
GI50 (SN12C renal): 25.8 µM
TGI (SN12C renal): > 100 µM
GI50 (SF-268 CNS): 34.6 µM
TGI (SF-268 CNS): > 100 µM
GI50 (OVCAR-5 ovarian): 63.5 µM
TGI (OVCAR-5 ovarian): > 100 µM
GI50 (HT29 colon): 8 µM
TGI (HT29 colon): 83.6 µM
GI50 (UACC-257 melanoma): 13.9 µM
TGI (UACC-257 melanoma): 60.5 µM
GI50 (PC-3 prostate): 9.09 µM
TGI (PC-3 prostate): > 100 µM
GI50 (TK-10 renal): 14.5 µM
TGI (TK-10 renal): 79.1 µM
GI50 (M14 melanoma): 27 µM
TGI (M14 melanoma): > 100 µM
GI50 (SF-295 CNS): 11.5 µM
TGI (SF-295 CNS): 58.2 µM
GI50 (SK-MEL-28 melanoma): 23.8 µM
TGI (SK-MEL-28 melanoma): > 100 µM
GI50 (NCI/ADR-RES ovarian): 7.36 µM
TGI (NCI/ADR-RES ovarian): > 100 µM
GI50 (NCI-H23 lung): 26 µM
TGI (NCI-H23 lung): > 100 µM
GI50 (HOP-62 NSCLC): 33.2 µM
TGI (HOP-62 NSCLC): > 100 µM
GI50 (MDA-MB-435): 25.1 µM
TGI (MDA-MB-435): 80.2 µM
GI50 (U251 CNS): 32.2 µM
TGI (U251 CNS): > 100 µM
GI50 (MOLT-4 leukemia): 6.96 µM
TGI (MOLT-4 leukemia): 89.9 µM
